Results from patent US10703757B2, “Compounds and methods for CDK8 modulation and indications therefor” (Plexxikon Inc., priority 2016, dated 2020).
pIC50: −log10 of the molar value.

Experiments:
[1] = system: CDK8 (phosphorylation of STAT1 at serine 727 in A549 cells); assay: Cell based Phospho-STAT1 assay (IFNγ-stimulated A549 cells, AlphaLISA); settings: Homo sapiens, A549, A549 cells, phospho-STAT1 after IFNγ stimulation
Outline: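 A549 cells given serial compound dilutions for 1 h at 37 °C, then stimulated with IFNγ at 10 ng/mL final for 30 min. Lysate STAT1 Ser727 phosphorylation measured by AlphaLISA; % inhibition vs stimulated/unstimulated DMSO controls, IC50 by nonlinear regression.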

[2] = system: CDK8 (TCF/LEF luciferase reporter in HCT116 cells); assay: Cell based TCF/LEF reporter assay (HCT116+TCF/LEF luciferase); settings: Homo sapiens, HCT-116, 24 h
Outline: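 HCT116 cells stably carrying a TCF/LEF-luciferase reporter (endogenous mutant β-catenin), seeded overnight, then exposed to serial compound dilutions for 24 h at 37 °C. Luminescence normalized to CellTiter-Fluor viability signal. % inhibition relative to DMSO and 10 uM CCT251545 controls, with IC50 from nonlinear regression.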

Row | SMILES | pIC50 [1] | pIC50 [2]
1 | Cc1ccc2cc(-c3cnn4cccc(C5=CCC(C#N)CC5)c34)ccc2n1 (stereo not shown) [Compound P-0223, 4-(3-(2-methylquinolin-6-yl)pyrazolo[1,5-a]pyridin-4-yl)cyclohex-3-ene-1-carbonitrile] | 7.00 to 10.00 | 7.00 to 10.00
2 | N#CC1CC=C(c2cccn3ncc(-c4ccc(-n5ccnn5)cc4)c23)CC1 (stereo not shown) [Compound P-0224, 4-(3-(4-(1H-1,2,3-triazol-1-yl)phenyl)pyrazolo[1,5-a]pyridin-4-yl)cyclohex-3-ene-1-carbonitrile] | 7.00 to 10.00 | 7.00 to 10.00
3 | N#CC1CC=C(c2cccn3ncc(-c4ccc(-n5cccn5)cc4)c23)CC1 (stereo not shown) [Compound P-0225, 4-(3-(4-(1H-pyrazol-1-yl)phenyl)pyrazolo[1,5-a]pyridin-4-yl)cyclohex-3-ene-1-carbonitrile] | 7.00 to 10.00 | 7.00 to 10.00
4 | Cn1ccc(-c2ccc(-c3cnn4cccc(C#CC(C)(C)O)c34)cc2)n1 [Compound P-0226, 2-methyl-4-(3-(4-(1-methyl-1H-pyrazol-3-yl)phenyl)pyrazolo[1,5-a]pyridin-4-yl)but-3-yn-2-ol] | 7.00 to 10.00 | 7.00 to 10.00
5 | CC(C)(O)C#Cc1cccn2ncc(-c3ccc(-c4cnoc4)cc3)c12 [Compound P-0228, 4-(3-(4-(isoxazol-4-yl)phenyl)pyrazolo[1,5-a]pyridin-4-yl)-2-methylbut-3-yn-2-ol] | 5.00 to 6.00 | 5.00 to 6.00
6 | CC(C)(O)C#Cc1cccn2ncc(-c3ccc(-c4cn[nH]c4)cc3)c12 [Compound P-0229, 4-(3-(4-(1H-pyrazol-4-yl)phenyl)pyrazolo[1,5-a]pyridin-4-yl)-2-methylbut-3-yn-2-ol] | 7.00 to 10.00 | 7.00 to 10.00
7 | Cc1c(-c2ccc(-c3cnn4cccc(C#CC(C)(C)O)c34)cc2)cnn1C [Compound P-0230, 4-(3-(4-(1,5-dimethyl-1H-pyrazol-4-yl)phenyl)pyrazolo[1,5-a]pyridin-4-yl)-2-methylbut-3-yn-2-ol] | 7.00 to 10.00 | 7.00 to 10.00
8 | Cc1cncc(-c2ccc(-c3cnn4cccc(C#CC(C)(C)O)c34)cc2)c1 [Compound P-0231, 2-methyl-4-(3-(4-(5-methylpyridin-3-yl)phenyl)pyrazolo[1,5-a]pyridin-4-yl)but-3-yn-2-ol] | 6.00 to 7.00 | 6.00 to 7.00

Second part, the molecule after the results:

Row | pIC50 [1] | pIC50 [2] | SMILES
9 | 7.00 to 10.00 | 6.00 to 7.00 | CC(C)(O)C#Cc1cccn2ncc(-c3ccc4cc(NS(C)(=O)=O)ccc4c3)c12 [Compound P-0216, N-(6-(4-(3-hydroxy-3-methylbut-1-yn-1-yl)pyrazolo[1,5-a]pyridin-3-yl)naphthalen-2-yl)methanesulfonamide]
10 | 7.00 to 10.00 | 7.00 to 10.00 | N#CC1CCC(c2cccn3ncc(-c4ccc(-n5cccn5)cc4)c23)CC1 (stereo not shown) [Compound P-0218, 4-(3-(4-(1H-pyrazol-1-yl)phenyl)pyrazolo[1,5-a]pyridin-4-yl)cyclohexane-1-carbonitrile]
11 | 7.00 to 10.00 | 7.00 to 10.00 | N#CC1CCN(c2c(-c3ccc(-n4cccn4)cc3)cnc3[nH]ccc23)CC1 [Compound P-0219, 1-(5-(4-(1H-pyrazol-1-yl)phenyl)-1H-pyrrolo[2,3-b]pyridin-4-yl)piperidine-4-carbonitrile]
12 | 7.00 to 10.00 | 7.00 to 10.00 | N#CC1CCN(c2c(-c3ccc(-n4ccnn4)cc3)cnc3[nH]ccc23)CC1 [Compound P-0220, 1-(5-(4-(1H-1,2,3-triazol-1-yl)phenyl)-1H-pyrrolo[2,3-b]pyridin-4-yl)piperidine-4-carbonitrile]
13 | 7.00 to 10.00 | 7.00 to 10.00 | COc1ccc2cc(-c3cnc4[nH]ccc4c3N3CCC(C#N)CC3)ccc2n1 [Compound P-0221, 1-(5-(2-methoxyquinolin-6-yl)-1H-pyrrolo[2,3-b]pyridin-4-yl)piperidine-4-carbonitrile]
14 | 7.00 to 10.00 | 7.00 to 10.00 | CNC(=O)c1ccc2cc(-c3cnn4cccc(C#CC(C)(C)O)c34)ccc2c1 [Compound P-0222, 6-(4-(3-hydroxy-3-methylbut-1-yn-1-yl)pyrazolo[1,5-a]pyridin-3-yl)-N-methyl-2-naphthamide]
